pEC50: −log10 of the molar value.

Usually Emax stands for the size of the effect at its maximum, as opposed to the concentration needed. For orientation: pEC50 means the negative decadic logarithm of the EC50, by convention in mol/L.

The nature of assay [1]: Induction of chondrogenesis in human MSC assessed as maximum activity at 10 nM incubated for 6 days by rhodamine B and Nile red staining based imaging analysis relative to control. It counts as functional. As to conditions: BMMSC, 144 h, time 6 day.
Assay [2] in a line: Effect on Wnt signaling pathway in human SW480 cells harbouring TCF/LEF luciferase reporter gene and SP5-Luc reporter gene incubated for 36 to 48 hrs by luminescence assay. It counts as cell-based. In general terms: In a reporter assay the amount or activity of a reporter protein is the signal.
Assay [3] addresses Dual specificity tyrosine-phosphorylation-regulated kinase 1A (Homo sapiens, UniProt Q13627). The assay can be described thus: Inhibition of recombinant DYRK1A (unknown origin) using Ser/Thr 18 peptide as substrate incubated for 1 hr in presence of ATP by FRET assay.
Assay [4] can be described thus: Inhibition of IL1-beta induced MMP3 expression levels in human chondrocytes assessed as MMP3 levels incubated for 2hrs followed by IL1-beta stimulation and measured after overnight incubation by LANCE assay. It counts as functional, cell-based. The conditions noted are these: Chondrocyte. In general terms: In TR-FRET formats the signal depends on donor and acceptor labels being close together.

For the compound `O=C(Nc1cncc(-c2ccc3[nH]nc(-c4cc5c(-c6cccnc6)cncc5[nH]4)c3c2)c1)C1CCCC1`, the Emax at 0.01 µM in assay [1] was determined as 45.5%. The pEC50 in assay [2] is 5.87; in assay [3] it was 7.62.
As for `CC(C)Nc1cncc(-c2ccc3[nH]nc(-c4nc5c(-c6ccccc6F)cncc5[nH]4)c3c2)c1`, the Emax at 0.01 µM in assay [1] worked out at 56.8%. The pEC50 in assay [2] is 9.00; in assay [3], 7.44.
The matching figures for `CCCCC(=O)Nc1cncc(-c2ccc3[nH]nc(-c4cc5cccnc5[nH]4)c3c2)c1`: 34.1%, 6.49 and 7.77.
As to `CC(C)CC(=O)Nc1cncc(-c2ccc3[nH]nc(-c4nc5c(-c6cc(F)cc(NCCN(C)C)c6)cncc5[nH]4)c3c2)c1`, in assay [1], the Emax at 0.01 µM stood at 82%. Besides, the pEC50 in assay [2] is 7.66; in assay [3] it was 8.00.
The matching figures for `CC(C)C(=O)Nc1cncc(-c2cc3c(-c4cc5c(N6CCN(C)CC6)cccc5[nH]4)n[nH]c3cn2)c1`: 36.4%, 6.15 and 7.59.
On to `O=C(Nc1cncc(-c2ccc3[nH]nc(-c4cc5c(-c6ccccc6F)nccc5[nH]4)c3n2)c1)C1CC1`, for which the Emax at 0.01 µM in assay [1] worked out at 24.8%. Moreover, the pEC50 is 6.19 in assay [2] and 7.34 in assay [3].
As to `CN(C)Cc1cncc(-c2ccc3[nH]nc(-c4cc5c(-c6cccnc6)cccc5[nH]4)c3n2)c1`, the Emax at 0.01 µM in assay [1] is 35.9%. In addition, the pEC50 in assay [2] is 6.38; in assay [3] it was 7.09.
Take `CCCCC(=O)Nc1cncc(-c2cc3c(-c4cc5cnccc5[nH]4)n[nH]c3cn2)c1`: the Emax at 0.01 µM in assay [1] is 49.9%. The pEC50 in assay [2] was 5.45; in assay [3] it was 8.70.
Consider `CC(C)CC(=O)Nc1cncc(-c2cc3c(-c4nc5c(-c6ccoc6)cccc5[nH]4)n[nH]c3cn2)c1`, for which, in assay [1], the Emax at 0.01 µM was found to be 58%. Besides, the pEC50 in assay [2] is 7.26; in assay [3], 7.42.
Regarding `c1cncc(-c2cc3c(-c4nc5c(-c6cccnc6)nccc5[nH]4)n[nH]c3cn2)c1`, in assay [1], the Emax at 0.01 µM was determined as 44.5%. Also, the pEC50 in assay [2] is 7.55; in assay [3] it was 7.54.
Turning to `CN(C)Cc1cncc(-c2ccc3[nH]nc(-c4cc5cccnc5[nH]4)c3n2)c1`, the Emax at 0.01 µM in assay [1] was 37%. Also, the results for the pEC50 in assay [2] and in assay [3] were less than 5.00 and 7.38, respectively.
In the case of `O=C(Nc1cncc(-c2cc3c(-c4nc5c(-c6cccs6)nccc5[nH]4)n[nH]c3cn2)c1)C1CC1`, in assay [1], the Emax at 0.01 µM came to 68.3%. The pEC50 in assay [2] is 7.65; in assay [3], 7.46.
For `Fc1ccc(-c2cncc3[nH]c(-c4n[nH]c5ncc(-c6cncnc6)cc45)cc23)cc1`, the Emax at 0.01 µM in assay [1] turned out to be 23.8%. Further, the figures for the pEC50 in assay [2] and in assay [3] were 6.23 and 7.68, respectively.
The matching figures for `c1cc(-c2ccoc2)c2cc(-c3n[nH]c4ccc(-c5cncc(CNCC6CCCC6)c5)nc34)[nH]c2c1`: 25.3%, 5.44 and 7.23.
As for `CC(C)CC(=O)Nc1cncc(-c2ccc3[nH]nc(-c4nc5c(-c6cccs6)cncc5[nH]4)c3c2)c1`, the Emax at 0.01 µM in assay [1] turned out to be 53.3%. The pEC50 in assay [2] is 10.00; in assay [3], 7.72.
Take `CC(C)CC(=O)Nc1cncc(-c2ccc3[nH]nc(-c4cc5c(-c6cc(F)cc(CNS(C)(=O)=O)c6)nccc5[nH]4)c3n2)c1`: in assay [1], the Emax at 0.01 µM worked out at 33.1%. Further, the pEC50 is 6.32 in assay [2] and 7.85 in assay [3].
On the same counts, the results for `c1cncc(-c2cnc3[nH]nc(-c4cc5cccnc5[nH]4)c3c2)c1` are 11%, 5.97 and 8.05.
For the compound `Cc1ncc(NC(=O)c2n[nH]c3ccc(-c4cnn(C5CCN(C)CC5)c4)cc23)s1`, the negative logarithm of the EC50 (pEC50) in assay [2] was 7.02; in assay [3], 8.52; in assay [4], 5.52.
In the case of `Cc1ccncc1-c1cc2c(-c3nc4c(-c5cc(F)cc(CNS(C)(=O)=O)c5)cncc4[nH]3)n[nH]c2cn1`, the results for the pEC50 in assay [2], in assay [3] and in assay [4] were 7.02, 8.22 and 6.22, respectively.
As to `O=C(Nc1ccc(OCCN2CCCC2)cc1)c1n[nH]cc1/C=C/c1cccnc1`, the pEC50 in assay [2] is 5.73; in assay [3] it was 8.40; in assay [4], 5.52.
The matching figures for `Cc1ncc(-c2ccc3cnc(NC(=O)C4(F)CC4)cc3c2)n1C`: 5.66, 8.22 and 7.73.
On to `O=C(Nc1ccc(OC(CO)CO)nc1)c1n[nH]c2ccc(-c3cncc(CN4CCCCC4)c3)cc12`, for which the pEC50 in assay [2] is 6.30; in assay [3], 8.40; in assay [4] it was 6.52.
`Nc1ncc(NC(=O)c2n[nH]c3ccc(-c4cncc(CN5CCCCC5)c4)cc23)cn1`: the negative-log EC50 (pEC50) in assay [2] is 7.52; in assay [3] it was 9.00; in assay [4], 6.75.
Take `CN1CCC(Oc2ccc(NC(=O)c3n[nH]c4cc(F)c(-c5cnn(C)c5)cc34)cn2)CC1`: the pEC50 was 6.92 in assay [2], 9.00 in assay [3] and 5.97 in assay [4].
Regarding `CN1CCC(Oc2ccc(NC(=O)c3n[nH]c4ccc(-c5ccc(N)nc5)cc34)cc2)CC1`, the pEC50 was 6.32 in assay [2], 8.40 in assay [3] and 8.31 in assay [4].
On to `O=C(Nc1cc2cc(-c3cnn4c3CCNC4)ccc2cn1)c1ccc(OC(F)F)cc1`, for which the values for the pEC50 in assay [2], in assay [3] and in assay [4] were 6.43, 8.22 and 5.72, respectively.
Turning to `CCN(C)Cc1cncc(-c2cnc3[nH]nc(-c4nc5c(-c6cccc(F)c6)cncc5[nH]4)c3c2)c1`, the pEC50 in assay [2] was 6.19; in assay [3], 8.10; in assay [4], 9.10.
Turning to `Cn1cc(-c2cc3c(C(=O)Nc4ccc5c(c4)CNC5)n[nH]c3cc2F)cn1`, the pEC50 in assay [2] is 6.10; in assay [3], 8.70; in assay [4] it was 5.92.
The matching figures for `COc1ccc(NC(=O)c2n[nH]cc2/C=C/c2cncc(CN3CCCCC3)c2)cn1`: 5.84, 8.30 and 5.52.
In the case of `Cc1cc(-c2ccc3[nH]nc(C(=O)Nc4ccc(OC5CCN(C)CC5)cc4)c3c2)sn1`, the pEC50 in assay [2] is 6.19; in assay [3], 8.52; in assay [4], 7.35.
As for `Cc1ncc(C(=O)Nc2cc3cc(-c4cnc(C)n4C)ccc3cn2)s1`, the pEC50 in assay [2] is 6.99; in assay [3] it was 9.00; in assay [4] it was 5.52.
`Cn1cc(-c2cc3c(C(=O)Nc4ccc(OCCN5CCCC5)cc4)n[nH]c3cc2F)cn1`: the pEC50 in assay [2] was 6.50; in assay [3], 9.00; in assay [4], 5.52.
As for `COc1cncc(C(=O)Nc2c[nH]nc2C(=O)Nc2ccc3c(c2)CCN(C)C3)c1`, the pEC50 was 6.25 in assay [2], 8.10 in assay [3] and 5.52 in assay [4].
Take `Cc1ncc(-c2ccc3[nH]nc(-c4nc5c(-c6cc(F)cc(NCCN(C)C)c6)ccnc5[nH]4)c3n2)n1C`: the pEC50 was 6.21 in assay [2], 8.10 in assay [3] and 7.89 in assay [4].
With `CN1CCC(n2cc(C(=O)Nc3cc4cc(-c5cncc6[nH]ccc56)ccc4cn3)cn2)CC1`, the pEC50 in assay [2] was 7.88; in assay [3], 8.52; in assay [4], 7.40.
Regarding `Cc1n[nH]c2ccc(-c3cc(OC[C@H](N)Cc4ccccc4)cnn3)cc12`, the negative-log EC50 (pEC50) was 5.94 in assay [2], 7.49 in assay [3] and 5.52 in assay [4].
Turning to `O=C(Nc1cccnc1)c1n[nH]c2ccc(-c3cncc(CN4CC(CO)(CO)C4)c3)cc12`, the pEC50 in assay [2] is less than 5.00; in assay [3], 8.70; in assay [4], 7.16.
In the case of `Cc1cn(-c2cncc3[nH]c(-c4n[nH]c5ccc(-c6cncc(NC(=O)CC(C)C)c6)cc45)nc23)cn1`, the results for the pEC50 in assay [2], in assay [3] and in assay [4] were 5.34, 9.00 and 6.07, respectively.
The matching figures for `Cc1n[nH]c2ccc(-c3cncc(OC[C@@H]4Cc5ccccc5CN4)n3)cc12`: 5.55, 7.25 and 5.52.
For `Cc1[nH]nc(C(=O)Nc2ccc(CN3CCCC3)cc2)c1/C=C/c1cccnc1`, the pEC50 in assay [2] is 5.67; in assay [3], 7.48; in assay [4], 5.98.
With `CCNCc1cncc(-c2ccc3[nH]nc(-c4nc5c(-c6ccccn6)nccc5[nH]4)c3c2)c1`, the values for the pEC50 in assay [2], in assay [3] and in assay [4] were 5.67, 8.00 and 8.62, respectively.
In the case of `Cc1n[nH]c2ccc(-c3cncc(N4CCC(O)CC4)n3)cc12`, the pEC50 is 5.72 in assay [2], 7.66 in assay [3] and 7.32 in assay [4].
Turning to `O=C(Nc1cncc(-c2ccc3[nH]nc(-c4nc5c(-c6cccnc6)cncc5[nH]4)c3c2)c1)c1ccccc1`, the pEC50 in assay [2] was less than 5.00; in assay [3], 8.22; in assay [4] it was 8.72.
The matching figures for `FC1(F)CCN(Cc2cncc(-c3cnc4[nH]nc(-c5nc6c(-c7ccoc7)nccc6[nH]5)c4c3)c2)C1`: 6.79, 8.00 and 10.00.
The matching figures for `COc1ccc(NC(=O)c2n[nH]c3ccc(-c4cncc(CO)c4)cc23)cn1`: 7.02, 9.00 and 5.52.
`O=C(Nc1cccnc1)c1n[nH]c2ncc(-c3cccnc3)cc12`: the figures for the pEC50 in assay [2], in assay [3] and in assay [4] were 6.10, 8.22 and 8.66, respectively.
On to `CC#CC(=O)Nc1cc2cc(-c3cnn(C)c3)ccc2cn1`, for which the pEC50 in assay [2] was 6.29; in assay [3], 8.22; in assay [4], 7.48.
Take `CN1CCC(Nc2cc(C(=O)Nc3cc4cc(-c5cnn(C)c5)ccc4cn3)ccn2)CC1`: the figures for the pEC50 in assay [2], in assay [3] and in assay [4] were 7.18, 8.70 and 5.52, respectively.

Source of the values: ChEMBL document CHEMBL4739717, “Methods of treating cartilage disorders through inhibition of clk and dyrk” (2020).
